Experimental data published in ChEMBL document CHEMBL3507680, “University of Dundee, Gates Library screen for HepG2 cell viability”.

Test: Human HepG2 cell viability assay in 384 well format
Assay type: toxicity, cell-based
Parameters: dose 125 nL, time 70.5 hour; concentration not given beside the values
Conditions: HepG2 cells, read-out: Inhibition

SMILES	cytotoxicity at 70.5 h [%]
Cc1cccc(C2CCCN(C(=O)c3ccncc3)C2)n1 (stereo not given)	-7.3
CCN1CCN(C)C(=O)C12CCN(Cc1ccsc1)CC2	-13
O=C(N1CCOCC1)N1CCCC1c1nc(-c2ccccn2)no1 (stereo not given)	-8.93
CN(C)c1cc(C(=O)NCC2(c3cccc(F)c3)CCOCC2)ccn1	-4.88
COc1ccnc(N2CCCN(C(=O)Cc3ccc(C)s3)CC2)n1	22.9
O=C(C[C@@H]1COC[C@H]2CN(Cc3ccccc3)C[C@@H]12)N1CCCC1	-14.4
c1ccc(CCCN2CCCC2Cn2cncn2)cc1 (stereo not given)	-3.86
CN(C)S(=O)(=O)NCC1CCN(Cc2ccccc2F)CC1	-9.47
Cc1ccc(C(C)(C)CNC(=O)NC(C)Cn2cncn2)cc1 (stereo not given)	-0.962
O=C(c1cccc(O)n1)N1CCC(O)(CN2CCC(F)(F)CC2)C1 (stereo not given)	-8.18
OC[C@@H](O)CN(CCC(F)(F)F)c1ncc(Cl)cn1	-4.91
O=C(Nc1cc(F)ccc1OCC1CCCO1)NC1CC1 (stereo not given)	-8.4
CCN(CC)S(=O)(=O)N1CCCC1CC(=O)c1cccs1 (stereo not given)	-4.6
COc1ccc(C2CCCCCN2Cc2nnc(C)o2)cc1 (stereo not given)	-3.01
c1ncn(CC2CCCN2Cc2cn3ccsc3n2)n1 (stereo not given)	-16.9
O=C(CNC(=O)c1cnc2ccccc2c1O)NCCn1ccnc1	-6.04
CC[C@@]1(O)CCN(C(=O)c2ccoc2)C[C@H]1O	-7.14
CCNC(=O)C1CCCN(c2ccc3ccc(F)cc3n2)C1 (stereo not given)	0.815
COCCN1CCn2cc(CNC(=O)C3CCC3)nc2C1	1.63
Cc1ccc(CC(=O)N2CCN(c3nccs3)CC2)s1	14.7
CSC(C)(C)CNC(=O)NC1CCC1	-1.66
COCc1cccc(NC(C)C(=O)N(C)Cc2ccccc2)c1 (stereo not given)	10.7
COCCNC(=O)N1CCCC1COc1ccccc1 (stereo not given)	-8.27

SMILES	cytotoxicity at 70.5 h [%]
Cc1nn(C)c2ncc(CNCCc3ccccn3)cc12	-8.59
CC(NC(=O)Nc1cnn(CC(N)=O)c1)c1ccc(Cl)s1 (stereo not given)	-1.05
Cn1nc(C2CCCN(C(=O)CO)C2)cc1O (stereo not given)	19.8
O=c1cc(N2CCCCC2)cnn1CCCn1cccn1	4.12
COc1ccccc1COCC(O)CN(C)Cc1cccc(Cl)c1 (stereo not given)	-23.5
COc1cc(C(C)=O)ccc1OCC(=O)N(Cc1ccsc1)C1CC1	-12
O[C@@H]1CN(Cc2cccnc2)C[C@H]1Oc1ccccc1	0.823
CCOc1ccc(CCC(=O)N2CC[C@H]3C(=O)NCCO[C@H]3C2)cc1	-10.6
Cc1[nH]/c(=N\C(=O)c2csc(NC3CCCC3)n2)sc1C	31.2
c1cnc(N2CCCC(NCc3ccc(-n4ccnc4)cc3)C2)nc1 (stereo not given)	-4.91
CCn1cc(CN2CCCN(C(=O)CCn3cc(C)cn3)CC2)cn1	-12.3
O=C(NCc1ccco1)[C@@H]1CC[C@@H]2[C@@H](CCN2Cc2ccc(F)cc2)O1	-5.82
Cc1n[nH]c(C2CN(C(=O)c3cc4c(s3)CCC4)CCO2)n1 (stereo not given)	-14.5
CC(C(=O)N1CCCCC1)N1CCN(c2ncc(Cl)cn2)CC1 (stereo not given)	-0.389
Cc1ccccc1OC1CCN(C(=O)c2c[nH]c(=O)[nH]c2=O)CC1	-0.618
CN(C)C(=O)NC1COC2(CCN(C(=O)Nc3ccccc3)CC2)C1 (stereo not given)	7.49
Cc1nc(NCc2coc(-c3ccccc3)n2)cc(C2CCNCC2)n1	-2.73
CN(C)S(=O)(=O)N1C[C@H]2CCC[C@@]2(COCc2cccnc2)C1	-6.86
CCCc1nc(N2CC[C@@H](c3ccc4ccccc4c3)[C@H](O)C2)no1	-0.24
COc1ncc(CN(C)C2CCN(C(C)C)CC2)cn1	8.08
O=C(c1ccc(S(=O)(=O)NCC(F)F)cc1)N1CC[C@H]2CNC[C@H]21	0.673
c1cnnc(N2CCCC2CNCc2nnc(C3CC3)o2)c1 (stereo not given)	-3.19
